What was measured:
Test in all cases: direct labeling of recombinantly expressed proteins by gel-based ABPP (WT vs lysine mutant)
Assay type in all cases: binding
ADK = molecular target: T1, ADK (Homo sapiens, UniProt P55263); conditions: ADK K88, KR mutant; 10 μM probe, 1 h
T1 construct: expressed in transfected cells; host or cells: HEK 293T

GSTO1 = molecular target: T2, GSTO1 (Homo sapiens, UniProt P78417); conditions: GSTO1 K57, KR mutant; 10 μM probe, 1 h
T2 construct: expressed in transfected cells; host or cells: HEK 293T
T2 sequence (P78417 1-241): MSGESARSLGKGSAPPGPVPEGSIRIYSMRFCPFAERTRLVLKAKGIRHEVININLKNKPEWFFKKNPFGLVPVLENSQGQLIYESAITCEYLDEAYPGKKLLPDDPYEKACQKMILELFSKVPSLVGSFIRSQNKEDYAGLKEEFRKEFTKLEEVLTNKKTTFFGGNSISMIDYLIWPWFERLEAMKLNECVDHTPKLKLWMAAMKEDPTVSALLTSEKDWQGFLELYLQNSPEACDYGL

CARM1 = molecular target: T3, CARM1 (Mus musculus, UniProt Q9WVG6); conditions: CARM1 K241, KR mutant; 10 μM probe, 1 h
T3 construct: FLAG; expressed in transfected cells; host or cells: HEK 293T
T3 sequence (Q9WVG6 1-608): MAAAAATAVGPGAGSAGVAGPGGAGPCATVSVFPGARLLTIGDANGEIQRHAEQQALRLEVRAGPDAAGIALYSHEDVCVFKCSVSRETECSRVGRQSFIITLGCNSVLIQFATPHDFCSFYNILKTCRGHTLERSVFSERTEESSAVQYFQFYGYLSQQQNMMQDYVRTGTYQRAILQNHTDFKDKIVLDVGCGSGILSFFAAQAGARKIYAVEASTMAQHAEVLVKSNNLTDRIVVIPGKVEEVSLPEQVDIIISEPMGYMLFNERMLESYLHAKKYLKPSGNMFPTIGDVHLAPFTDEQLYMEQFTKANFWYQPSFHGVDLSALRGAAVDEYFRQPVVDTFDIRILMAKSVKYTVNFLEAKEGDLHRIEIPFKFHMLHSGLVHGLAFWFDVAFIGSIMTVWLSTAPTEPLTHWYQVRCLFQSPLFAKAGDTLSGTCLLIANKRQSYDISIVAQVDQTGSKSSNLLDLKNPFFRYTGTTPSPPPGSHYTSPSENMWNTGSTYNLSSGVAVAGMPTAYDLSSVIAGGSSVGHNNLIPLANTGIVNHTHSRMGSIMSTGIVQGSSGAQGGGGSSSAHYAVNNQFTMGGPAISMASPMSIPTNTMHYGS

T1 sequence (P55263 whole entry): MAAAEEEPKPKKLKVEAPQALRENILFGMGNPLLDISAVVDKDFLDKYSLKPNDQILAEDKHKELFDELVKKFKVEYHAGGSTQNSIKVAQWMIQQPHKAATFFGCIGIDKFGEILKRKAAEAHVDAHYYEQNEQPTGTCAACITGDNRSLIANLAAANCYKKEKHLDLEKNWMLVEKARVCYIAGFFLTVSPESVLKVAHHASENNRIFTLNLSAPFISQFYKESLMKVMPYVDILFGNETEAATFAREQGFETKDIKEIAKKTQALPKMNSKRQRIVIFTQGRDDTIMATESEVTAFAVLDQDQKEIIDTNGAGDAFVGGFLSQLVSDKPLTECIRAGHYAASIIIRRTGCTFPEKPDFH

| SMILES | labeling of WT vs mutant protein by probe (ADK) | labeling of WT vs mutant protein by probe (GSTO1) | labeling of WT vs mutant protein by probe (CARM1) |
| --- | --- | --- | --- |
| C#CCCC(=O)Oc1c(F)c(F)c(S(=O)(=O)[O-])c(F)c1F.[Na+] [probe 1, reference compound] | PD (the WT labeled more than the mutant (>2x difference quantified)) | PD (the WT labeled more than the mutant (>2x difference quantified)) | HD (the WT labeled more than the mutant (>4x difference quantified)) |
| C#CCCC(=O)Oc1c(F)c(F)c(F)c(F)c1F [probe 6, Pentafluorophenyl 4-pentynoate] | – | ND (the WT did not label more than the mutant (<2x difference quantified)) | ND (the WT did not label more than the mutant (<2x difference quantified)) |
| C#Cc1ccc(C(=O)Oc2ccccc2[N+](=O)[O-])cc1 [probe 10, 2-Nitrophenyl 4-ethynylbenzoate] | HD (the WT labeled more than the mutant (>4x difference quantified)) | – | – |
| C#Cc1ccc(C(=O)Oc2c(F)c(F)cc(F)c2F)cc1 [probe 12, 2,3,5,6-Tetrafluorophenyl 4-ethynylbenzoate] | HD (the WT labeled more than the mutant (>4x difference quantified)) | ND (the WT did not label more than the mutant (<2x difference quantified)) | ND (the WT did not label more than the mutant (<2x difference quantified)) |
| C#Cc1ccc(C(=O)Oc2c(F)c(F)c(F)c(F)c2F)cc1 [probe 13, Pentafluorophenyl 4-ethynylbenzoate] | HD (the WT labeled more than the mutant (>4x difference quantified)) | ND (the WT did not label more than the mutant (<2x difference quantified)) | ND (the WT did not label more than the mutant (<2x difference quantified)) |
| Cc1cc(C)n2c1C=C1C=CC(CCC(=O)Oc3c(F)c(F)c(S(=O)(=O)[O-])c(F)c3F)=[N+]1[B-]2(F)F.[Na+] [probe 18, reference compound] | PD (the WT labeled more than the mutant (>2x difference quantified)) | ND (the WT did not label more than the mutant (<2x difference quantified)) | PD (the WT labeled more than the mutant (>2x difference quantified)) |

Source: patent US20210255193A1, “LYSINE REACTIVE PROBES AND USES THEREOF” (The Scripps Research Institute, priority 2017, published 2021)
